Experimental data from PubChem BioAssay AID248 (DTP/NCI, 2004).
Where “and” joins values, the source holds several entries; their conditions need not be identical. Equal values may be shown once. Toxic doses and inconclusive results are not listed. Rule as the data show it: active = T/C of 150% or more; inactive = T/C below 125%.

Tested on: L1210 leukemia ip in BDF1 mice, survival T/C
Test: NCI In Vivo Anticancer Drug Screen. Data for tumor model L1210 Leukemia (intraperitoneal) in B6D2F1 (BDF1) mice
Conditions: endpoint: mean survival time, higher = longer survival
Procedure, shortened: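 Tumor was transplanted into mice, which were then dosed with test compound or vehicle alone. Survival was recorded for each group, and the treated figure was expressed relative to the control figure.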

[1] = dose: 12.5 mg/kg/injection, schedule: Q01DX009 (ip), vehicle: saline with Tween-80
[2] = dose: 25.0 mg/kg/injection, schedule: Q01DX009 (ip), vehicle: saline with Tween-80
[3] = dose: 100.0 mg/kg/injection, schedule: Q01DX009 (ip), vehicle: saline
[4] = dose: 200.0 mg/kg/injection, schedule: Q01DX009 (ip), vehicle: saline
[5] = dose: 400.0 mg/kg/injection, schedule: Q01DX009 (ip), vehicle: saline
[6] = dose: 100.0 mg/kg/injection, schedule: Q04DX003 (ip), vehicle: saline with Tween-80
[7] = dose: 200.0 mg/kg/injection, schedule: Q04DX003 (ip), vehicle: saline with Tween-80
[8] = dose: 100.0 mg/kg/injection, schedule: Q04DX002 (ip), vehicle: Klucel (hydroxypropylcellulose) (HPC)
[9] = dose: 200.0 mg/kg/injection, schedule: Q04DX002 (ip), vehicle: Klucel (hydroxypropylcellulose) (HPC)
[10] = dose: 100.0 mg/kg/injection, schedule: Q04DX003 (ip), vehicle: Klucel (hydroxypropylcellulose) (HPC)
[11] = dose: 200.0 mg/kg/injection, schedule: Q04DX003 (ip), vehicle: Klucel (hydroxypropylcellulose) (HPC)
[12] = dose: 400.0 mg/kg/injection, schedule: Q04DX003 (ip), vehicle: Klucel (hydroxypropylcellulose) (HPC)
[13] = dose: 100.0 mg/kg/injection, schedule: Q01DX001 (ip), vehicle: carboxymethylcellulose (CMC)

Measured: T/C

CN(C)N=Nc1ccccc1C(=O)O
inactive: dose: 0.78 mg/kg/injection, schedule: Q01DX009 (ip), vehicle: Klucel (hydroxypropylcellulose) (HPC) 105 % of control | dose: 1.56 mg/kg/injection, schedule: Q01DX009 (ip), vehicle: Klucel (hydroxypropylcellulose) (HPC) 97 % of control | dose: 3.12 mg/kg/injection, schedule: Q01DX009 (ip), vehicle: Klucel (hydroxypropylcellulose) (HPC) 103 % of control | dose: 6.25 mg/kg/injection, schedule: Q01DX009 (ip), vehicle: Klucel (hydroxypropylcellulose) (HPC) 103 % of control | dose: 11.0 mg/kg/injection, schedule: Q01DX009 (ip), vehicle: saline with Tween-80 109 % of control | dose: 12.5 mg/kg/injection, schedule: Q01DX001 (ip), vehicle: saline with Tween-80 95 % of control | [1] 123 % of control | dose: 12.5 mg/kg/injection, schedule: Q04DX003 (ip), vehicle: saline with Tween-80 101 % of control | dose: 17.0 mg/kg/injection, schedule: Q01DX009 (ip), vehicle: saline with Tween-80 107 % of control | dose: 25.0 mg/kg/injection, schedule: Q01DX001 (ip), vehicle: saline with Tween-80 98 % of control | [2] 115 % of control | dose: 25.0 mg/kg/injection, schedule: Q04DX003 (ip), vehicle: other 115 % of control | dose: 25.0 mg/kg/injection, schedule: Q04DX003 (ip), vehicle: saline with Tween-80 104 % of control | dose: 37.0 mg/kg/injection, schedule: Q01DX009 (ip), vehicle: saline with Tween-80 91 % of control | dose: 50.0 mg/kg/injection, schedule: Q01DX001 (ip), vehicle: saline with Tween-80 101 % of control | dose: 50.0 mg/kg/injection, schedule: Q04DX003 (ip), vehicle: other 105 % of control | dose: 50.0 mg/kg/injection, schedule: Q04DX003 (ip), vehicle: saline with Tween-80 103 % of control | dose: 100.0 mg/kg/injection, schedule: Q04DX003 (ip), vehicle: other 111 % of control | dose: 200.0 mg/kg/injection, schedule: Q04DX003 (ip), vehicle: other 113 % of control | dose: 400.0 mg/kg/injection, schedule: Q04DX003 (ip), vehicle: other 100 % of control

CCOC(CNC(=O)CC(C)=O)OCC
inactive: [3] 96 % of control | dose: 100.0 mg/kg/injection, schedule: Q04DX003 (ip), vehicle: saline 104 % of control | [4] 104 % of control | dose: 200.0 mg/kg/injection, schedule: Q04DX003 (ip), vehicle: saline 108 % of control | [5] 98 % of control | dose: 400.0 mg/kg/injection, schedule: Q04DX003 (ip), vehicle: saline 103 % of control

CCCCCCC[CH2][Sn]([CH2]CCCCCCC)([NH]S(=O)(=O)c1ccc(C)cc1)[NH]S(=O)(=O)c1ccc(C)cc1
inactive: dose: 18.75 mg/kg/injection, schedule: Q01DX009 (ip), vehicle: saline sonified 102 % of control | dose: 37.5 mg/kg/injection, schedule: Q01DX009 (ip), vehicle: saline sonified 86 % of control | dose: 75.0 mg/kg/injection, schedule: Q04DX003 (ip), vehicle: Klucel (hydroxypropylcellulose) (HPC) 107 % of control

CC(C)N=C(c1ccccc1)N(O)c1ccccc1
inactive: dose: 75.0 mg/kg/injection, schedule: Q01DX001 (ip), vehicle: saline 93 % of control | dose: 150.0 mg/kg/injection, schedule: Q01DX001 (ip), vehicle: saline 101 % of control | dose: 300.0 mg/kg/injection, schedule: Q01DX001 (ip), vehicle: saline 91 % of control

CCOC(=O)C1SC(N)=NC1=O (stereo not given)
inactive: [6] 94 % of control | [7] 90 % of control

C[CH2][Pb]([Br])([CH2]C)[CH2]C
inactive: dose: 6.25 mg/kg/injection, schedule: Q01DX009 (ip), vehicle: saline with Tween-80 103 % of control | [1] 103 % of control | [2] 94 % of control and 103 % of control | dose: 25.0 mg/kg/injection, schedule: Q04DX002 (ip), vehicle: saline with Tween-80 93 % of control | dose: 50.0 mg/kg/injection, schedule: Q04DX002 (ip), vehicle: saline with Tween-80 99 % of control | dose: 100.0 mg/kg/injection, schedule: Q04DX002 (ip), vehicle: saline with Tween-80 96 % of control

COC(=O)C=P(c1ccccc1)(c1ccccc1)c1ccccc1
inactive: dose: 75.0 mg/kg/injection, schedule: Q01DX001 (ip), vehicle: carboxymethylcellulose (CMC) 98 % of control | dose: 150.0 mg/kg/injection, schedule: Q01DX001 (ip), vehicle: carboxymethylcellulose (CMC) 98 % of control | dose: 300.0 mg/kg/injection, schedule: Q01DX001 (ip), vehicle: carboxymethylcellulose (CMC) 101 % of control

Nc1ccc(S(=O)(=O)c2ccc(N)cn2)cc1
inactive: dose: 50.0 mg/kg/injection, schedule: Q04DX002 (ip), vehicle: Klucel (hydroxypropylcellulose) (HPC) 89 % of control | [8] 98 % of control and 107 % of control | [9] 96 % of control | dose: 400.0 mg/kg/injection, schedule: Q04DX002 (ip), vehicle: Klucel (hydroxypropylcellulose) (HPC) 96 % of control and 102 % of control

COC(=O)c1cc([N+](=O)[O-])c(Br)s1
inactive: [10] 93 % of control

NC(C(=O)O)c1ccco1 (stereo not given)
inactive: [10] 103 % of control | [11] 105 % of control | [12] 101 % of control

C(=C\c1ccnc2ccccc12)/c1ccccc1
inactive: [3] 101 % of control | [6] 89 % of control | [4] 101 % of control | [7] 94 % of control | [5] 100 % of control | dose: 400.0 mg/kg/injection, schedule: Q04DX003 (ip), vehicle: saline with Tween-80 89 % of control

CCC(CC)(CCN)c1ccccc1
inactive: dose: 50.0 mg/kg/injection, schedule: Q01DX001 (ip), vehicle: carboxymethylcellulose (CMC) 90 % of control | [13] 93 % of control

CCCCCC(=O)/C=C/CC(CCCCCCC#N)C(CC(OC)OC)[N+](=O)[O-] (stereo not given)
inactive: [10] 100 % of control | [11] 96 % of control | [12] 96 % of control

CCOC(=O)C(C)(C)CN(CC(C)(C)C(=O)OCC)C(C)(C)CO
inactive: dose: 100.0 mg/kg/injection, schedule: Q01DX001 (ip), vehicle: other 95 % of control | dose: 200.0 mg/kg/injection, schedule: Q01DX001 (ip), vehicle: other 98 % of control | dose: 400.0 mg/kg/injection, schedule: Q01DX001 (ip), vehicle: other 87 % of control

CCCCC(C)C(C#N)(NC(C)=O)C(=O)OCC (stereo not given)
inactive: dose: 75.0 mg/kg/injection, schedule: Q04DX003 (ip), vehicle: saline 109 % of control | dose: 150.0 mg/kg/injection, schedule: Q04DX003 (ip), vehicle: saline 98 % of control | dose: 300.0 mg/kg/injection, schedule: Q04DX003 (ip), vehicle: saline 91 % of control

c1cc(N2CCOCC2)ccc1Cc1ccc(N2CCOCC2)cc1
inactive: dose: 100.0 mg/kg/injection, schedule: Q01DX009 (ip), vehicle: Klucel (hydroxypropylcellulose) (HPC) 102 % of control | [10] 93 % of control | dose: 200.0 mg/kg/injection, schedule: Q01DX009 (ip), vehicle: Klucel (hydroxypropylcellulose) (HPC) 109 % of control | [11] 101 % of control | [12] 93 % of control

O=C(c1ccccc1)C(Cl)C(=O)c1ccccc1
inactive: dose: 12.5 mg/kg/injection, schedule: Q04DX003 (ip), vehicle: Klucel (hydroxypropylcellulose) (HPC) 94 % of control | dose: 25.0 mg/kg/injection, schedule: Q04DX003 (ip), vehicle: Klucel (hydroxypropylcellulose) (HPC) 115 % of control | dose: 50.0 mg/kg/injection, schedule: Q04DX003 (ip), vehicle: Klucel (hydroxypropylcellulose) (HPC) 96 % of control | dose: 100.0 mg/kg/injection, schedule: Q01DX001 (ip), vehicle: Klucel (hydroxypropylcellulose) (HPC) 98 % of control | [10] 100 % of control | dose: 200.0 mg/kg/injection, schedule: Q01DX001 (ip), vehicle: Klucel (hydroxypropylcellulose) (HPC) 97 % of control | dose: 400.0 mg/kg/injection, schedule: Q01DX001 (ip), vehicle: Klucel (hydroxypropylcellulose) (HPC) 95 % of control

O=C(O)/C(=C\c1ccccc1Cl)c1ccccc1
inactive: [8] 94 % of control | [9] 90 % of control

Cc1cccc(NC(=O)Nc2cccc(C(F)(F)F)c2)c1
inactive: [13] 97 % of control | dose: 200.0 mg/kg/injection, schedule: Q01DX001 (ip), vehicle: carboxymethylcellulose (CMC) 101 % of control | dose: 400.0 mg/kg/injection, schedule: Q01DX001 (ip), vehicle: carboxymethylcellulose (CMC) 97 % of control
